Test results taken from publication PMC6859649 (Free radical biology & medicine, 2017).
Where a name gives a salt, the structure may show the parent alone.

Molecular target: Myeloperoxidase (MPO) (Homo sapiens, UniProt P05164)
Experiment: taurine chloramine chlorination assay
Type: biochemical

Myeloperoxidase (MPO), sequence (P05164 165-273): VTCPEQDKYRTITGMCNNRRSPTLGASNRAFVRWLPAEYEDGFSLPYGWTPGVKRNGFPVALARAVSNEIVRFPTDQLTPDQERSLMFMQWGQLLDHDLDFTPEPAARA
Myeloperoxidase (MPO), sequence (P05164 279-745): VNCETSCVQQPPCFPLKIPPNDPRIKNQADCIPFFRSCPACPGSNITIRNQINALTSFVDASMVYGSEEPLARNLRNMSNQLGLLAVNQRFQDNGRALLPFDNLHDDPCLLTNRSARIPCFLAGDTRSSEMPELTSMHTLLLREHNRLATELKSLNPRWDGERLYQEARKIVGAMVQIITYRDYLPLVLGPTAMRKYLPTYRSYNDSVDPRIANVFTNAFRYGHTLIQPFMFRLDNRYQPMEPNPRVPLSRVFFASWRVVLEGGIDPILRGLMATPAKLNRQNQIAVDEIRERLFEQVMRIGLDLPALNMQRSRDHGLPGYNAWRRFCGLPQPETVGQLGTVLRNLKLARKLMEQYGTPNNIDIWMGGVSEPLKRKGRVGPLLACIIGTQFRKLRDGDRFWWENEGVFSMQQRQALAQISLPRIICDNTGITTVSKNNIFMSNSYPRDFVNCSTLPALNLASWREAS

IC50: ~5 µM
Structure (SMILES): O=S(=O)(O)CCS [mesna, 2-mercaptoethanesulfonic acid sodium salt]
